Measured values taken from patent US20230278972A1, “SUBSTITUTED HALOALKYL SULFONANILIDE HERBICIDES” (FMC Corporation, priority 2020, published 2023).

Columns and labels:
Assay type in all cases: in vivo
[1] = tested on: soybean (Glycine max); assay: Test A1 preemergence, soybean
In short: (§1)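 Pre: seeds in loam/sand blend, directed soil spray. Post: potted plants, same soil, 2–10 cm, 1–2 leaf stage. Chemicals in non-phytotoxic solvent + surfactant for both.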

[2] = tested on: rice (Oryza sativa); assay: Test B1 flooded paddy test, rice; details: 250 g ai/ha, Flood, applied to paddy water, 2-leaf stage, visually evaluated after 10 to 14 days
From the text: (§2) A dash (-) response means no test result.

[3] = tested on: barnyardgrass (Echinochloa crus-galli); assay: Test B1 flooded paddy test, barnyardgrass; details: 250 g ai/ha, Flood, applied to paddy water, 2-leaf stage, visually evaluated after 10 to 14 days
From the text: as §2

[4] = tested on: blackgrass (Alopecurus myosuroides); assay: Test A1 postemergence, blackgrass; details: Postemergence, 0 to 100 scale (0 no effect, 100 complete control)
In short: (§3)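 Herbicidal response was scored on plants treated either preemergence, by directed spray onto soil of a loam–sand blend after sowing, or postemergence on potted plants at the one- to two-leaf stage, 2–10 cm high. Test chemicals were carried in a non-phytotoxic solvent mix with surfactant.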

[5] = tested on: Foxtail, Giant (giant foxtail, Setaria faberi); assay: Test A1 preemergence, Foxtail, Giant
In short: as §1

[6] = tested on: wheat (Triticum aestivum); assay: Test A1 postemergence, wheat; details: Postemergence
In short: as §3

[7] = tested on: corn (Zea mays); assay: Test A1 preemergence, corn
In short: as §1

[8] = tested on: horseweed (Erigeron canadensis); assay: Test A1 postemergence, horseweed; details: Postemergence
In short: as §3

[9] = tested on: Foxtail, Giant (giant foxtail, Setaria faberi); assay: Test A1 postemergence, Foxtail, Giant; details: Postemergence
In short: as §3

[10] = tested on: Pigweed, Palmer (palmer amaranth, palmer pigweed, Amaranthus palmeri); assay: Test A1 preemergence, Pigweed, Palmer
In short: as §1

[11] = tested on: Ryegrass, Italian (Italian ryegrass, Lolium multiflorum); assay: Test A1 preemergence, Ryegrass, Italian
In short: as §1

[12] = 31 g ai/ha, 0 to 100 scale (0 no effect, 100 complete control)
[13] = 125 g ai/ha, 0 to 100 scale, 0 no effect, 100 complete control
[14] = 31 g ai/ha, 0 to 100 scale (0 no effect, 100 complete control), 10 days

Row | Compound | Plant response rating, Soybean [1, 12] | Plant response rating, Soybean [1, 13] | Plant response rating, Rice (0 to 100 scale, 0 is no effect, 100 is complete control) [2] | Plant response rating, Barnyardgrass (0 to 100 scale, 0 is no effect, 100 is complete control) [3] | Plant response rating, Blackgrass ([4]; 31 g ai/ha, 10 days) | Plant response rating, Blackgrass ([4]; 125 g ai/ha) | Plant response rating, Foxtail, Giant [5, 12] | Plant response rating, Foxtail, Giant [5, 13] | Plant response rating, Wheat [6, 14] | Plant response rating, Wheat ([6]; 125 g ai/ha, 0 to 100 scale) | Plant response rating, Corn [7, 12] | Plant response rating, Corn [7, 13] | Plant response rating, Horseweed [8, 14] | Plant response rating, Horseweed ([8]; 125 g ai/ha, 0 to 100 scale) | Plant response rating, Foxtail, Giant [9, 14] | Plant response rating, Foxtail, Giant ([9]; 125 g ai/ha, 0 to 100 scale) | Plant response rating, Pigweed, Palmer [10, 12] | Plant response rating, Pigweed, Palmer [10, 13] | Plant response rating, Ryegrass, Italian [11, 12] | Plant response rating, Ryegrass, Italian [11, 13]
1 | Cc1c(NS(=O)(=O)C(F)(F)F)cc(C(=O)N(C)C)c(C)c1C [Compound 288] | 30 | 40 | 0 | 0 | 0 | 0 | 20 | 90 | 0 | 10 | 0 | 0 | 20 | 30 | 0 | 70 | 50 | 70 | 0 | 0
2 | Cc1c(NS(=O)(=O)C(F)(F)F)cc(C(=O)N2CCOCC2)c(C)c1C [Compound 289, 1,1,1-Trifluoro-N-[2,3,4-trimethyl-5-(4-morpholinylcarbonyl)phenyl]methanesulfonamide] | 20 | 60 | 10 | 85 | 0 | 10 | 30 | 100 | 20 | 50 | 0 | 30 | 80 | 90 | 40 | 90 | 90 | 100 | 20 | 70
3 | Cc1cc(C)c(C2=NOC3CCCCCC23)cc1NS(=O)(=O)C(F)(F)F (stereo not shown) [Compound 292] | 0 | 40 | 0 | 0 | 0 | 0 | 50 | 100 | 0 | 70 | 0 | 40 | 0 | 30 | 0 | 30 | 60 | 60 | 60 | 100
4 | Cc1cc(C)c(N(C(=O)OC(C)C)S(=O)(=O)C(F)(F)F)cc1C1=NOC2CCCC12 (stereo not shown) [Compound 295] | 0 | 0 | 0 | 95 | 0 | 0 | 0 | 40 | 20 | 70 | 0 | 0 | 10 | 50 | 0 | 10 | 0 | 80 | 40 | 70
5 | Cc1cc(C)c(N(S(=O)(=O)C(F)(F)F)S(=O)(=O)C(F)(F)F)cc1C1=NOC2COCC12 (stereo not shown) [Compound 296] | 20 | 30 | 0 | 30 | 0 | 0 | 30 | 100 | 0 | 30 | 0 | 70 | 70 | 80 | 0 | 10 | 10 | 80 | 0 | 90
6 | Cc1cc(C)c(C2=NOC3COCC23)cc1NS(=O)(=O)C(F)(F)F (stereo not shown) [Compound 297] | 0 | 50 | 0 | 0 | 0 | 0 | 80 | 100 | 10 | 80 | 0 | 20 | 50 | 80 | 10 | 60 | 30 | 90 | 0 | 90
7 | Cc1cc(C)c(N(C(=O)OCC(C)C)S(=O)(=O)C(F)(F)F)cc1C1=NOC2CCCC12 (stereo not shown) [Compound 299] | 0 | 0 | 0 | 95 | 0 | 0 | 0 | 40 | 30 | 70 | 0 | 0 | 0 | 30 | 0 | 30 | 0 | 70 | 50 | 60
8 | Cc1cc(C)c(N(COC(=O)C(C)(C)C)S(=O)(=O)C(F)(F)F)cc1C1=NOC2COCC12 (stereo not shown) [Compound 301] | 0 | 20 | 0 | 95 | 0 | 0 | 10 | 90 | 0 | 60 | 0 | 10 | 50 | 80 | 0 | 60 | 10 | 40 | 20 | 90
